Measured values taken from US11712434B2, “Compound having anti-cancer effect, and preparation method therefor and use thereof” (3D MEDICINES (BEIJING) CO., LTD., priority 2016, dated 2023).

Assays:
Assay in all cases: Cell proliferation assay (Alamar Blue)
Assay type in all cases: cell-based
T.T = T.T tumor cell line, 6 days culture
Procedure: (§1) 1. Instruments and Materials • Thermo 311 CO2 incubator; Haier biosafety cabinet; Molecular Devices microplate reader; Xiangyi brand L530 desktop low speed centrifuge; Olympus IX51 inverted fluorescence microscope, DMEM, RPMI 1640, MEM, DMEM/F12 1:1 medium, Fetal bovine serum, 0.25% trypsin solution, phosphate buffer (Thermo Fisher Shanghai Co., Ltd.); sigma dimethyl sulfoxide (DMSO), resazurin; 54 commercial tumor cell lines (including 26 liver cancer cell lines). Experimental drugs: compounds 1-12 and active drug Linifanib; chemotherapeutic drug Doxorubicin (HY-15142; Shanghai Qianyuan Biomedical Technology Co., Ltd.).
(§2) 2. Experimental Methods • 2.1 Cultivation of Different Cell Lines • 54 cell lines were cultured in a culture medium containing fetal bovine serum and placed in a 5% CO2 incubator at 37° C. for incubation. The cells were all grown in an adherent state, and the growth was observed under an inverted microscope, and subculture was performed when the cell confluence rate reached 80%-90%. The proportion and quantity of passage were determined by experimental needs. The ratio of subculture of this cell line was generally 1:2^˜1:3. • 2.2 Inhibition Effect on the Proliferation of Different Tumor Cell Lines • Cell test: 54 cell lines in logarithmic growth phase were inoculated in 96-well culture plates at 500^˜1×10^4/well (the optimal seeding density of each cell line was determined in pre-experiment), After incubating at 37° C. for 4 h in a 5% CO2 humidification incubator, added 10 μL of compounds 1-12 or Linifanib to each well, and tested 9 drug concentration gradients for each compound (diluted from the highest concentration of the test by 3.16 times). The solubility of each compound was different at a starting concentration of 100 or 30 μM, respectively. The QC reference compound Doxorubicin was added simultaneously to each cell line test, and the final drug concentrations were 10, 3.16, 1, 0.31, 0.1, 0.03, 0.01, 0.003, and 0.001 μM, respectively. In addition, a positive control group (100% inhibition) and a negative control group (0% inhibition) were set at the same time. The drug group was repeated for 2 wells per concentration, and the positive control group and the negative control group were repeated for 6 wells. After the culture was continued for 6 days in the incubator, AlamarBlue test operation was followed; • AlamarBlue test procedure: Incubated with 10 μL of AlamarBlue reagent per well for 1-4 h, shook for 1-2 min, MD microplate reader EX: 560 nm, EM: 590 nm wavelength to measure fluorescence, recorded the results, calculated the cell inhibition rate of the compound of the invention. Cell inhibition rate (%)=(A0% inhibition−A administration)/(A0% inhibition−A100% inhibition)×100%, and then using the method of nonlinear regression using GraphPad Prism 5.0 or MATILAB software (usually using four parameters) to graph and obtain a drug dose response curve to obtain an IC50 value of the compound of the present invention acting on a cancer cell line.

Hep3B2.1-7 = Hep3B2.1-7 liver cancer cell line, 6 days culture
Procedure: as §1, §2

HT1080 = HT1080 tumor cell line, 6 days culture
Procedure: as §1, §2

JHH1 = JHH1 liver cancer cell line, 6 days culture
Procedure: as §1, §2

TE-6 = TE-6 tumor cell line, 6 days culture
Procedure: as §1, §2

NCI-H1703 = NCI-H1703 (lung cancer cells), 6 days culture
Procedure: as §1, §2

HuTu80 = HuTu80 tumor cell line, 6 days culture
Procedure: as §1, §2

JHH7 = JHH7 liver cancer cell line, 6 days culture
Procedure: as §1, §2

SK-HEP-1 = SK-HEP-1 liver cancer cell line, 6 days culture
Procedure: as §1, §2

JHH4 = JHH4 liver cancer cell line, 6 days culture
Procedure: as §1, §2

LC-2-ad = LC-2-ad tumor cell line, 6 days culture
Procedure: as §1, §2

SNU182 = SNU182 liver cancer cell line, 6 days culture
Procedure: as §1, §2

NCI-H661 = NCI-H661 tumor cell line, 6 days culture
Procedure: as §1, §2

SNU886 = SNU886 liver cancer cell line, 6 days culture
Procedure: as §1, §2

JHH2 = JHH2 liver cancer cell line, 6 days culture
Procedure: as §1, §2

AN3CA = AN3CA tumor cell line, 6 days culture
Procedure: as §1, §2

22RV1 = 22RV1 tumor cell line, 6 days culture
Procedure: as §1, §2

HUH1 = HUH1 liver cancer cell line, 6 days culture
Procedure: as §1, §2

SNU398 = SNU398 liver cancer cell line, 6 days culture
Procedure: as §1, §2

JHH6 = JHH6 liver cancer cell line, 6 days culture
Procedure: as §1, §2

Alexander cells = Alexander cells liver cancer cell line, 6 days culture
Procedure: as §1, §2

KM12 = KM12 tumor cell line, 6 days culture
Procedure: as §1, §2

SNU739 = SNU739 liver cancer cell line, 6 days culture
Procedure: as §1, §2

KASUMI-1 = KASUMI-1 (leukemia cells), 6 days culture
Procedure: as §1, §2

SNU423 = SNU423 liver cancer cell line, 6 days culture
Procedure: as §1, §2

SNU761 = SNU761 liver cancer cell line, 6 days culture
Procedure: as §1, §2

HLF = HLF liver cancer cell line, 6 days culture
Procedure: as §1, §2

NCI-H1648 = NCI-H1648 tumor cell line, 6 days culture
Procedure: as §1, §2

Structure (SMILES): Cc1ccc(F)c(NC(=O)Nc2ccc(-c3cccc4[nH]nc(NC(=O)C[C@H](N)C(=O)N[C@@H](CCC(=O)N[C@@H](CCC(=O)N[C@@H](CCC(=O)N[C@@H](CCC(=O)O)C(=O)O)C(=O)O)C(=O)O)C(=O)O)c34)cc2)c1 [Compound 2]
- IC50 (T.T; Homo sapiens, TT, 144 h): 16.9 µM
- IC50 (Hep3B2.1-7; 144 h): 6.32 µM
- IC50 (HT1080; Homo sapiens, HT-1080, 144 h): 24.9 µM
- IC50 (JHH1; 144 h): 33.9 µM
- IC50 (TE-6; Homo sapiens, 144 h): 27.6 µM
- IC50 (NCI-H1703; Homo sapiens, 144 h): 0.07 µM
- IC50 (HuTu80; Homo sapiens, 144 h): 4.26 µM
- IC50 (JHH7; 144 h): 4.26 µM
- IC50 (SK-HEP-1; Homo sapiens, SK-HEP1, 144 h): 31 µM
- IC50 (JHH4; JHH-4, 144 h): 36.8 µM
- IC50 (LC-2-ad; Homo sapiens, 144 h): 6.37 µM
- IC50 (SNU182; Homo sapiens, SNU-182, 144 h): 46.2 µM
- IC50 (NCI-H661; Homo sapiens, 144 h): 36.8 µM
- IC50 (SNU886; SNU-886, 144 h): 16.9 µM
- IC50 (JHH2; JHH-2, 144 h): 88.2 µM
- IC50 (AN3CA; Homo sapiens, AN3-CA, 144 h): 0.73 µM
- IC50 (22RV1; Homo sapiens, 144 h): 11.5 µM
- IC50 (HUH1; Homo sapiens, HuH-1, 144 h): 7.26 µM
- IC50 (SNU398; Homo sapiens, SNU-398, 144 h): 4.63 µM
- IC50 (JHH6; 144 h): 10.9 µM
- IC50 (Alexander cells; 144 h): 7.11 µM
- IC50 (KM12; Homo sapiens, 144 h): 5.48 µM
- IC50 (SNU739; SNU-739, 144 h): 11.3 µM
- IC50 (KASUMI-1; Homo sapiens, 144 h): 0.05 µM
- IC50 (SNU423; Homo sapiens, SNU-423, 144 h): 33.2 µM
- IC50 (SNU761; 144 h): 19.5 µM
- IC50 (HLF; 144 h): 10.8 µM
- IC50 (NCI-H1648; Homo sapiens, 144 h): 21.5 µM

Structure (SMILES): Cc1ccc(F)c(NC(=O)Nc2ccc(-c3cccc4[nH]nc(NC(=O)C[C@H](N)C(=O)N[C@@H](CCC(=O)O)C(=O)O)c34)cc2)c1 [Compound 1]
- IC50 (T.T; Homo sapiens, TT, 144 h): 9.24 µM
- IC50 (Hep3B2.1-7; 144 h): 3.29 µM
- IC50 (HT1080; Homo sapiens, HT-1080, 144 h): 10.4 µM
- IC50 (JHH1; 144 h): 21.4 µM
- IC50 (TE-6; Homo sapiens, 144 h): 10.5 µM
- IC50 (NCI-H1703; Homo sapiens, 144 h): 0.03 µM
- IC50 (HuTu80; Homo sapiens, 144 h): 1.98 µM
- IC50 (JHH7; 144 h): 1.54 µM
- IC50 (SK-HEP-1; Homo sapiens, SK-HEP1, 144 h): 16.6 µM
- IC50 (JHH4; JHH-4, 144 h): 25 µM
- IC50 (LC-2-ad; Homo sapiens, 144 h): 3.52 µM
- IC50 (SNU182; Homo sapiens, SNU-182, 144 h): 30.9 µM
- IC50 (NCI-H661; Homo sapiens, 144 h): 20.2 µM
- IC50 (SNU886; SNU-886, 144 h): 7.24 µM
- IC50 (JHH2; JHH-2, 144 h): 43.6 µM
- IC50 (AN3CA; Homo sapiens, AN3-CA, 144 h): 0.34 µM
- IC50 (22RV1; Homo sapiens, 144 h): 8.16 µM
- IC50 (HUH1; Homo sapiens, HuH-1, 144 h): 4.67 µM
- IC50 (SNU398; Homo sapiens, SNU-398, 144 h): 1.75 µM
- IC50 (JHH6; 144 h): 6.57 µM
- IC50 (Alexander cells; 144 h): 4.01 µM
- IC50 (KM12; Homo sapiens, 144 h): 3.71 µM
- IC50 (SNU739; SNU-739, 144 h): 7.63 µM
- IC50 (KASUMI-1; Homo sapiens, 144 h): 0.02 µM
- IC50 (SNU423; Homo sapiens, SNU-423, 144 h): 25.4 µM
- IC50 (SNU761; 144 h): 12.6 µM
- IC50 (HLF; 144 h): 5.24 µM
- IC50 (NCI-H1648; Homo sapiens, 144 h): 10.1 µM

Structure (SMILES): Cc1ccc(F)c(NC(=O)Nc2ccc(-c3cccc4[nH]nc(NC(=O)CCCCCCCCCCCNC(=O)C[C@H](N)C(=O)N[C@@H](CCC(=O)O)C(=O)O)c34)cc2)c1 [Compound 7]
- IC50 (T.T): > 100 µM
- IC50 (Hep3B2.1-7): 40.4 µM
- IC50 (HT1080): > 100 µM
- IC50 (JHH1): > 100 µM
- IC50 (TE-6): > 100 µM
- IC50 (NCI-H1703): 0.11 µM
- IC50 (HuTu80): 27.7 µM
- IC50 (JHH7): 63.4 µM
- IC50 (SK-HEP-1): > 100 µM
- IC50 (JHH4): > 100 µM
- IC50 (LC-2-ad): 46.4 µM
- IC50 (SNU182): > 100 µM
- IC50 (NCI-H661): > 100 µM
- IC50 (SNU886): 75.2 µM
- IC50 (JHH2): > 100 µM
- IC50 (AN3CA): 3.84 µM
- IC50 (22RV1): > 100 µM
- IC50 (HUH1): > 100 µM
- IC50 (SNU398): > 100 µM
- IC50 (JHH6): > 100 µM
- IC50 (Alexander cells): > 100 µM
- IC50 (KM12): 79.1 µM
- IC50 (SNU739): > 100 µM
- IC50 (KASUMI-1): 0.23 µM
- IC50 (SNU423): > 100 µM
- IC50 (SNU761): > 100 µM
- IC50 (HLF): 72.6 µM
- IC50 (NCI-H1648): > 100 µM

Structure (SMILES): Cc1ccc(F)c(NC(=O)Nc2ccc(-c3cccc4[nH]nc(NC(=O)CCCCCCCCCCCNC(=O)C[C@H](N)C(=O)N[C@@H](CCC(=O)N[C@@H](CCC(=O)N[C@@H](CCC(=O)N[C@@H](CCC(=O)N[C@@H](CCC(=O)N[C@@H](CCC(=O)N[C@@H](CCC(=O)N[C@@H](CCC(=O)N[C@@H](CCC(=O)O)C(=O)O)C(=O)O)C(=O)O)C(=O)O)C(=O)O)C(=O)O)C(=O)O)C(=O)O)C(=O)O)c34)cc2)c1 [Compound 9]
- IC50 (T.T): > 100 µM
- IC50 (Hep3B2.1-7): > 100 µM
- IC50 (HT1080): > 100 µM
- IC50 (JHH1): > 100 µM
- IC50 (TE-6): > 100 µM
- IC50 (NCI-H1703): 0.35 µM
- IC50 (HuTu80): 90.4 µM
- IC50 (JHH7): > 100 µM
- IC50 (SK-HEP-1): > 100 µM
- IC50 (JHH4): > 100 µM
- IC50 (LC-2-ad): > 100 µM
- IC50 (SNU182): > 100 µM
- IC50 (NCI-H661): > 100 µM
- IC50 (SNU886): > 100 µM
- IC50 (JHH2): > 100 µM
- IC50 (AN3CA): 10.3 µM
- IC50 (22RV1): > 100 µM
- IC50 (HUH1): > 100 µM
- IC50 (SNU398): > 100 µM
- IC50 (JHH6): > 100 µM
- IC50 (Alexander cells): > 100 µM
- IC50 (KM12): > 100 µM
- IC50 (SNU739): > 100 µM
- IC50 (KASUMI-1): 0.87 µM
- IC50 (SNU423): > 100 µM
- IC50 (SNU761): > 100 µM
- IC50 (HLF): > 100 µM
- IC50 (NCI-H1648): > 100 µM
